Values of other authors, collected in patent US7947677B2, “Spirolactam tricyclic CGRP receptor antagonists” (Merck Sharp & Dohme Corp., priority 2005, dated 2011).
No end group written: not given here.

Key:
[1] = tested on: middle meningeal artery; settings: rats, electrical stimulation of the dura mater, prior administration (Williamson et al. 1997)
[2] = tested on: facial blood flow; settings: rat, trigeminal ganglion stimulation (Escott et al. 1995)
[3] = tested on: facial blood flow; settings: marmoset, electrical stimulation of the trigeminal ganglion (Doods et al. 2000)

Compound | increase of the diameter of the middle meningeal artery [1] | increased facial blood flow [2] | increase in facial blood flow [3]
CGRP(8-37): a fragment of CGRP that lacks seven N-terminal amino acid residues; a peptide CGRP antagonist (VTHRLAGLLSRSGGVVKNNFVPTNVGSKAF; ends and bridges not checked; UniProt P06881 90-119, looked up, fragment) | blocked | inhibited | 
NCCCC[C@H](NC(=O)[C@@H](Cc1cc(Br)c(O)c(Br)c1)NC(=O)N1CCC(N2Cc3ccccc3NC2=O)CC1)C(=O)N1CCN(c2ccncc2)CC1 [BIBN4096BS] |  |  | blocked
